Data as given in patent publication US20110263693A1, “CELASTROL, GEDUNIN, AND DERIVATIVES THEREOF AS HSP90 INHIBITORS” (DANA-FARBER CANCER INSTITUTE, INC., priority 2006, published 2011).

Experiments:
[1] = tested on: androgen-responsive gene expression in LNCaP cells; assay: Genome-wide gene expression profiling with hierarchical clustering of androgen-responsive genes; format: cell-based; settings: androgen-stimulated LNCaP, celastrol 1.25 μM, gedunin 20 μM, 24 hr
Description: We next asked whether celastrol and gedunin inhibit the broader program of androgen signaling beyond the GE-HTS signature. To address this question, we compared the genome-wide gene expression profiles of androgen-stimulated LNCaP cells treated with celastrol (1.25 μM) and gedunin (20 μM) for 24 hr to those of androgen-stimulated and androgen-deprived cells.
The mRNA expression profiles of celastrol- and gedunin-treated cells were determined by Affymetrix U133A microarray analysis in triplicate. RNA was isolated by Trizol extraction from LNCaP cells treated with vehicle, 1.25 μM celastrol, or 20 μM gedunin (1) for 24 hr in RPMI, 10% charcoal-stripped FBS, and 1 nM R1881 or vehicle, following androgen deprivation in charcoal-stripped media for 2 days, and (2) for 6 hr in RPMI with 10% FBS. IVT, labeling, hybridization, and washing were carried out on the Affymetrix High-Throughput Array platform using HT_HG-U133A preproduction arrays (early access version; part number 520276) for all but the 24 hr gedunin samples. U133A version 2 arrays were used for the 24 hr gedunin samples for technical reasons. Raw data were processed by RMA. For hierarchical clustering, a 169 probe set of androgen-regulated genes was defined and used to perform average linkage clustering (see below). […]

HSP90-HOP interaction = assay: HSP90 coimmunoprecipitation, HOP; format: cell-based; settings: SKBR-3 cells; celastrol 2.5 μM, 12 hr
Description: Geldanamycin and other HSP90 inhibitors are known to inhibit p23 association with HSP90 (Felts et al., 2003). In contrast, HSP90-HOP interaction was unaltered by celastrol and other HSP90 inhibitors (FIG. 7F). Thus, celastrol inhibits the functional interactions of HSP90 and suppresses HSP90 client levels.
SKBR-3 cells were treated with vehicle, celastrol (2.5 μM, 12 hr), and PU24FCI (20 μM, 24 hr) (Vilenchik et al., 2004). Cells were lysed in 20 mM Tris HCl (pH 7.4), 25 mM NaCl, 2 mM DDT, 20 mM Na2MoO4, 0.1% NP-40, and […]. Lysates were incubated for 2 hr at 4° C., rotating, and then centrifuged at 13,000×g for 10 min. Protein (500 μg) was incubated with H9010 anti-HSP90 antibody for 1 hr at 4° C., rotating. Protein G agarose (30 μl; Upstate) was added to each sample, and samples were then incubated for 1 hr at 4° C., rotating. The beads were washed five times with 1 ml lysis buffer. Bound proteins were isolated by boiling in sample buffer. The levels of HSP90 and coimmunoprecipitating proteins were analyzed by western blot.

[2] = tested on: mouse models of arthritis; settings: purified celastrol, 1-3 mg/kg daily; cited from earlier work
hERG potassium channel = hERG potassium channel (Homo sapiens, UniProt Q12809); settings: by inhibiting hERG maturation (Sun et al., 2006); cited from earlier work
Sequence of hERG potassium channel (Q12809 whole entry): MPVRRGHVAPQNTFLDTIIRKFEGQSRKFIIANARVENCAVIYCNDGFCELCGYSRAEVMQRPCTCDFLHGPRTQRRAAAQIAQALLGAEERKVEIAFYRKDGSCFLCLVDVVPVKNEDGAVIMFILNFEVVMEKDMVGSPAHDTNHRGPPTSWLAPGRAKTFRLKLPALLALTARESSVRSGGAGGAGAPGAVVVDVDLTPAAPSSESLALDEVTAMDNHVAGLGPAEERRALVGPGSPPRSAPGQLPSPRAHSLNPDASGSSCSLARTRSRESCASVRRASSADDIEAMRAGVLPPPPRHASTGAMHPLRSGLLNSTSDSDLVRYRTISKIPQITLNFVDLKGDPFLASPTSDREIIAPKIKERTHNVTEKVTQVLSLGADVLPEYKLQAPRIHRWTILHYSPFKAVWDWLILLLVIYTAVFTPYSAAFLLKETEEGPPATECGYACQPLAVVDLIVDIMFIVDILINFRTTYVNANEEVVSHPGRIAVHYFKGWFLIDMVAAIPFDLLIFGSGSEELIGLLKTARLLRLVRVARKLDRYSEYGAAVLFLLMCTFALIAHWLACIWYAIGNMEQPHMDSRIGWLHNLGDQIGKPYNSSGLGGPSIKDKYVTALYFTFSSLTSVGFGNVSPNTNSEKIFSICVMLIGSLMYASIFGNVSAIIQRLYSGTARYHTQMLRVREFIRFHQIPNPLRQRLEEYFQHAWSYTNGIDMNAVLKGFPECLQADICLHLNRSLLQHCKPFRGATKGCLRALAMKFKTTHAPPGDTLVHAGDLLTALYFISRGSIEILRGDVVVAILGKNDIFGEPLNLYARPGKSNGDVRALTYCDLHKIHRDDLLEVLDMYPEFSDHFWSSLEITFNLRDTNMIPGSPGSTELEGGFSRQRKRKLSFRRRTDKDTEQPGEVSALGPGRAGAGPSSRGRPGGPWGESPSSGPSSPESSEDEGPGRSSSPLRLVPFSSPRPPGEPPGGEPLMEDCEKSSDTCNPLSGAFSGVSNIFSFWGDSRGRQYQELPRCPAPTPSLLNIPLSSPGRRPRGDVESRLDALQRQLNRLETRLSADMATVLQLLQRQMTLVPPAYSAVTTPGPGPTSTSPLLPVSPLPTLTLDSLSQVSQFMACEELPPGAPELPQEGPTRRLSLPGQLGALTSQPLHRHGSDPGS

HSP70 = settings: Westerheide et al., 2004; cited from earlier work
HSP90α = HSP90α (Homo sapiens, UniProt P07900); assay: Geldanamycin competition assay (Cy3B-geldanamycin fluorescence polarization); format: binding; set-up: purchased Stressgen SPP776 / SPP-776; settings: celastrol and gedunin at concentrations up to ~100 μM
Description: We first tested whether celastrol or gedunin could compete with Cy3B-geldanamycin for binding to the ATP-binding pocket of purified HSP90α by fluorescence polarization assay (Kim et al., 2004, Llauger-Bufi et al., 2003).
The geldanamycin competition assay was performed as described (He et al., 2006, Kim et al., 2004), except that Cy3B-geldanamycin rather than BODIPY-geldanamycin was used as described herein.
Measurements were taken in black 96-well microtiter plates (Coming #3650). The assay buffer (HFB) contained 20 mM HEPES (K) pH 7.3, 50 mM KCl, 5 mM MgCl2, 20 mM Na2MoO4, 0.01% NP40. Before each use, 0.1 mg/mL bovine gamma globulin (BGG) (Panvera Corporation, Madison, Wis.) and 2 mM DTT (Fisher Biotech, Fair Lawn, N.J.) were freshly added. GM-cy3B was synthesized as previously reported and was dissolved in DMSO to form 10 μM solutions. Cell lysates were prepared rupturing cellular membranes by freezing at −70° C. and dissolving the cellular extract in HFB with added protease and phosphotase inhibitors. Saturation curves were recorded in which GM-cy3B (3 nM) was treated with increasing amounts of cellular lysates.

| SMILES | broader program of androgen signaling (genome-wide expression, hierarchical clustering) [1] | HSP90-HOP interaction (coimmunoprecipitation) (HSP90-HOP interaction) | bioactivity in mouse models of arthritis [2] | hERG potassium channel activity (hERG potassium channel) | HSP70 levels (HSP70) | competition with Cy3B-geldanamycin for binding to the ATP-binding pocket of HSP90α (HSP90α) |
| --- | --- | --- | --- | --- | --- | --- |
| CC1=C(O)C(=O)C=C2C1=CC=C1[C@@]2(C)CC[C@@]2(C)[C@@H]3C[C@](C)(C(=O)O)CC[C@]3(C)CC[C@]12C [celastrol] | invoked a broader gene expression program similar to that induced by androgen deprivation | unaltered | significant bioactivity | suppress hERG potassium channel activity | induce HSP70 levels | Neither celastrol nor gedunin significantly competed |
| CC(=O)O[C@@H]1C[C@H]2C(C)(C)C(=O)C=C[C@]2(C)[C@H]2CC[C@@]3(C)[C@H](c4ccoc4)OC(=O)[C@H]4O[C@]43[C@@]21C [gedunin] | invoked a broader gene expression program similar to that induced by androgen deprivation |  |  |  |  | Neither celastrol nor gedunin significantly competed |
